# Active and inactive are the calls of the source. No cut-off for these calls is given here.
# Key:
# [1] = biological target: T1, Aurora kinase A (Homo sapiens) (UniProt O14965); experiment: Inhibition of Aurora kinase A in human RPE-MYC cells transfected with BCL2 assessed as inhibition of protein autophosphorylation at Thr288 residue by immunofluorescence staining based analysis; type: cell-based
# T1 sequence (whole entry): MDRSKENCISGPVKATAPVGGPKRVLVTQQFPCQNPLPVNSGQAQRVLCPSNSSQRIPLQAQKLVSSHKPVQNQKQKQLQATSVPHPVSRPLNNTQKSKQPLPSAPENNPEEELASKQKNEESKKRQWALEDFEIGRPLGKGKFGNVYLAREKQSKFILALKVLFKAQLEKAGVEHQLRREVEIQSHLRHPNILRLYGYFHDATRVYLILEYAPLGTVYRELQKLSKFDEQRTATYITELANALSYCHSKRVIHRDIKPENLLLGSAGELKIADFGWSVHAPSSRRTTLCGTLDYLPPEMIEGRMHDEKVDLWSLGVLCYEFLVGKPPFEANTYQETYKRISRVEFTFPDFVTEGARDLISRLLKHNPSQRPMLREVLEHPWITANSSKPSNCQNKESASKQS
# [2] = biological target: Aurora kinase B (Homo sapiens) (UniProt Q96GD4); experiment: Inhibition of Aurora kinase B in human RPE-MYC cells transfected with BCL2 assessed as inhibition of histone H3 phosphorylation at Ser10 residue by immunofluorescence staining based analysis; type: cell-based
# [3] = biological target: Aurora kinase B (Homo sapiens) (UniProt Q96GD4); experiment: Disruption of AURKB localization in human RPE-MYC transfected with GFP-H2B assessed as minimal effective concentration that induces mitotic arrest, polyploidy, cell death and cell number reduction by MIPS assay; type: cell-based
# [4] = biological target: Aurora kinase B (Homo sapiens) (UniProt Q96GD4); experiment: Inhibition of Aurora kinase B in human RPE-MYC cells transfected with BCL2 assessed as inhibition of histone H3 phosphorylation at Ser10 residue at MEC for polyploidy measured after 6 hrs by immunofluorescence staining based analysis; type: cell-based
# [5] = biological target: Aurora kinase B (Homo sapiens) (UniProt Q96GD4); experiment: Disruption of AURKB localization in human RPE-MYC cells transfected with BCL2 assessed as loss of localization of MKLP1 at the spindle-midzone by immunofluorescence staining based analysis; type: cell-based
# [6] = biological target: Aurora kinase B (Homo sapiens) (UniProt Q96GD4); experiment: Disruption of AURKB localization in human RPE-MYC cells transfected with BCL2 assessed as loss of localization of PLK1 at the spindle-midzone by immunofluorescence staining based analysis; type: cell-based
# [7] = biological target: Aurora kinase B (Homo sapiens) (UniProt Q96GD4); experiment: Disruption of AURKB localization in human RPE-MYC cells transfected with BCL2 assessed as loss of localization of microtubules at the spindle-midzone by immunofluorescence staining based analysis; type: cell-based
# [8] = Cmax in BALB/c mouse at 50 mg/kg, po compound formulated in PEG300 and administered as single dose by LC-MS/MS analysis; type: ADME, organism-based; design: dose 50 mg/kg, route po; details: in vivo
# [9] = Dose normalized AUC (0 to 6 hrs) in BALB/c mouse at 50 mg/kg, po compound formulated in PEG300 and administered as single dose by LC-MS/MS analysis; type: ADME, organism-based; details: in vivo
# [10] = biological target: Aurora kinase B (Homo sapiens) (UniProt Q96GD4); experiment: Disruption of AURKB localization in human RPE-MYC cells transfected with BCL2 assessed as mislocalization of AURKB at the spindle zone in anaphase cells by immunofluorescence staining based analysis; type: cell-based
# [11] = biological target: Aurora kinase B (Homo sapiens) (UniProt Q96GD4); experiment: Inhibition of Aurora kinase B in human RPE-MYC cells transfected with BCL2 assessed as inhibition of histone H3 phosphorylation at Ser10 residue at highest concentration measured after 6 hrs by immunofluorescence staining based analysis; type: cell-based
# [12] = biological target: Aurora kinase B (Homo sapiens) (UniProt Q96GD4); experiment: Inhibition of Aurora kinase B in human RPE-MYC cells transfected with BCL2 assessed as inhibition of histone H3 phosphorylation at Ser10 residue at 200 nM measured after 6 hrs by immunofluorescence staining based analysis; type: cell-based
# [13] = biological target: Epithelial discoidin domain-containing receptor 1 (Homo sapiens) (UniProt Q08345); experiment: Inhibition of DDR1 (unknown origin)
# Epithelial discoidin domain-containing receptor 1 (Homo sapiens), sequence (Q08345 whole entry, the tested form may be a part): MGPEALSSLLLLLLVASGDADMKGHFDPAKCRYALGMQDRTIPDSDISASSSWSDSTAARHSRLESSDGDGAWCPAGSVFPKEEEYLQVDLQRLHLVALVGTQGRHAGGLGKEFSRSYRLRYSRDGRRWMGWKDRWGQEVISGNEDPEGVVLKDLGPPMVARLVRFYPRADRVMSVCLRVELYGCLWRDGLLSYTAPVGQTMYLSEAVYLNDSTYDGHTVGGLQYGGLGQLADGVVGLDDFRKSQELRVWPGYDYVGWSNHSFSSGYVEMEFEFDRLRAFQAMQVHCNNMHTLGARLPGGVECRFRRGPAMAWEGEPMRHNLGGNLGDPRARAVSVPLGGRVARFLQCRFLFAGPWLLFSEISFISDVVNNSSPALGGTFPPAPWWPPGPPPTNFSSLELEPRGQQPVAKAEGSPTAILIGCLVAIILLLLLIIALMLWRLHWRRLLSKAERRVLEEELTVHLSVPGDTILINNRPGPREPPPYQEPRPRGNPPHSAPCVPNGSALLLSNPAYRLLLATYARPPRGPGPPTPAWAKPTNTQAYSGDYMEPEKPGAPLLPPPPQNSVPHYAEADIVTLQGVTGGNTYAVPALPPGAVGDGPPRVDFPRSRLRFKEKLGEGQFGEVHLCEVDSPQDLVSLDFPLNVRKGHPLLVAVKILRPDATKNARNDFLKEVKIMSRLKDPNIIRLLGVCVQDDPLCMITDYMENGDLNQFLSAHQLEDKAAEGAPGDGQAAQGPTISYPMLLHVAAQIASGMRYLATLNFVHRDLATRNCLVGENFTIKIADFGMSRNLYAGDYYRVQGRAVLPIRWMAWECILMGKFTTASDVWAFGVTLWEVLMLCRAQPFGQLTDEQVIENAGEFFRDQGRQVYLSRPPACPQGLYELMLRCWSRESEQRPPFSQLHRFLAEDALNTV
# Aurora kinase B (Homo sapiens), sequence (Q96GD4 whole entry): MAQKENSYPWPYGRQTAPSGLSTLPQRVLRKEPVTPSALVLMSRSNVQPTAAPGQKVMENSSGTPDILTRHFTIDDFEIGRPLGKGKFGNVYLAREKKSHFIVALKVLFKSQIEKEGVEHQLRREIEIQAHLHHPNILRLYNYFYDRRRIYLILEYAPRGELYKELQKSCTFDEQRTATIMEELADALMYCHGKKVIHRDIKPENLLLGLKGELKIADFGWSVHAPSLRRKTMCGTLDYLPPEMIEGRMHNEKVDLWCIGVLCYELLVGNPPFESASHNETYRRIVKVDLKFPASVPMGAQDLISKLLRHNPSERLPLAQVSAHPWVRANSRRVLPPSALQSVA
smiles,measurement,setting,value
COc1cc(OC)cc(Oc2ncccc2-c2ccnc(C)c2)c1,inhibition,[1],inactive
same,inhibition,[2],inactive
same,MEC,[3],0.08 µM
COc1cc(Oc2ncccc2-c2ccncc2)cc(C(=O)N(C)C)c1,MEC,[3],2.08 µM
COc1cc(OC)cc(Oc2ncccc2-c2ccccc2)c1,MEC,[3],2.08 µM
CNC(=O)c1cc(Oc2ncccc2-c2ccnc(C)c2)cc(OC(F)(F)F)c1,inhibition,[4],inactive
same,Activity,[5],Active
same,Activity,[6],Active
same,MEC,[3],0.12 µM
same,Activity,[7],Active
same,Cmax,[8],14.4 µM
same,AUC/dose,[9],0.72 µM·h/mg/kg
same,Activity,[10],Active
COc1cc(OC)cc(Oc2ncccc2-c2cccc(N)n2)c1,MEC,[3],0.96 µM
COc1cc(NC(C)=O)cc(Oc2ncccc2-c2ccnc(OC)c2)c1,inhibition,[4],Active
same,Activity,[5],Active
same,Activity,[6],Active
same,inhibition,[11],< 68%
same,MEC,[3],0.03 µM
same,Activity,[7],Active
same,Activity,[10],Active
CNC(=O)c1cc(OC)cc(Oc2ncccc2-c2ccnc(OC)c2)c1,inhibition,[4],inactive
same,Activity,[5],Active
same,Activity,[6],Active
same,MEC,[3],0.03 µM
same,Activity,[7],Active
same,Activity,[10],Active
COc1cc(OC)cc(Oc2ncccc2-c2ccncn2)c1,MEC,[3],0.75 µM
COc1cc(OC)cc(Oc2ncccc2-c2ccnc(N)n2)c1,MEC,[3],0.37 µM
COC(=O)c1cccc(Oc2ncccc2-c2ccnc(N)n2)c1,MEC,[3],0.85 µM
COc1cccc(Oc2ncccc2-c2ccnc(N)n2)c1,MEC,[3],1.5 µM
COc1cc(OC)cc(Oc2ncccc2-c2ccnc(C)n2)c1,MEC,[3],1.29 µM
COC(=O)c1cc(OC)cc(Oc2ncccc2-c2ccnc(N)n2)c1,MEC,[3],0.03 µM
CCN(CCCOc1ccc2c(Nc3cc(CC(=O)Nc4cccc(F)c4)[nH]n3)ncnc2c1)CCOP(=O)(O)O,inhibition,[12],100%
COC(=O)c1cc(OC)cc(Oc2ncccc2-c2ccncc2)c1,MEC,[3],0.02 µM
COc1cc(NC(C)=O)cc(Oc2ncccc2-c2ccncc2)c1,inhibition,[4],inactive
same,Activity,[5],Active
same,inhibition,[13],Active
same,Activity,[6],Active
same,MEC,[3],0.11 µM
same,Activity,[7],Active
same,Activity,[10],Active
